pIC50: −log10 of the molar value. Where two headings read alike, the source gives them in different places.
Columns and labels:
[1] = target: T1, CYP2A13 (Homo sapiens, UniProt Q16696); assay: CYP2A13 inhibition, coumarin to 7-hydroxy-coumarin (Umbelliferone) fluorescence assay in microsomes
T1 sequence (Q16696 1-494): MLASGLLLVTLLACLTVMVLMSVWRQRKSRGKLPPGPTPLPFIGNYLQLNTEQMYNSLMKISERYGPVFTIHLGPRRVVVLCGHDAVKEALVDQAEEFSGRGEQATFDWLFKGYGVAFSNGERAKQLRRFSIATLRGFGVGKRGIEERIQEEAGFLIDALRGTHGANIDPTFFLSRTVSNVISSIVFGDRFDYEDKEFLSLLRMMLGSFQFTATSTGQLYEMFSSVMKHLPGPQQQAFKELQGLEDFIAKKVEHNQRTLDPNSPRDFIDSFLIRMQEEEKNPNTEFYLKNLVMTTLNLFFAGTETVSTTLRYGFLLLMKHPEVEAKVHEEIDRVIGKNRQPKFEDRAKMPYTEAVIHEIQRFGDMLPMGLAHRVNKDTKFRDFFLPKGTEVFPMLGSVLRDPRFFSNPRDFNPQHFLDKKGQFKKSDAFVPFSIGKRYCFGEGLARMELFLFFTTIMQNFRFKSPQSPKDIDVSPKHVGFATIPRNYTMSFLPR
Description: Compounds that inhibit the activity of CYP2A13 are identified by using a standard reaction established for the enzyme. A known substrate is coumarin, and the product of the enzymatic reaction is 7-hydroxy-coumarin (Umbelliferone) which is strongly fluorescent. When a compound is added to the standard reaction and the formation of Umbelliferone is decreased, the compound is identified as an inhibitor, which can also be a competitive substrate of the enzyme. The compound is used at various concentrations and the concentration-dependent decrease in Umbelliferone formation allows to determine the concentration where the activity of the enzyme is reduced to the 50% level (IC50 value).
A test compound (details see Table 1) was incubated with CYP2A13 in the presence of a cytochrome P450 reductase. CYP2A13 and P450 reductase were employed in form of microsomes. […] Preferably, the two enzymes are coexpressed in the same insect cells and microsomes prepared which contain both enzymes. […] An MOI of 4 for recombinant CYP2A13 baculovirus combined with an MOI of 3.5 for recombinant P450 reductase baculovirus routinely produced microsomes with considerable activity.
Microsomes were used which contained 7 pmoles CYP2A13. […] The concentration of the standard substrate coumarin was 0.006 mM. […] The mixture was incubated for 10 min at 37° C. prior to the initiation of the enzymatic reaction by the addition of 0.005 ml of a solution of 50 mM NADPH in water. The final total volume was 0.2 ml, which is suitable for microtiter plate measurements. The samples were incubated for 60 min at 37° C. After 60 min, the enzymatic reaction was stopped by the addition of 0.02 ml cold 50% trichloroacetic acid (TCA) and incubated at 4° C. for 15 min. 0.005 ml of a solution of 50 mM NADPH in water was added to the control reaction which corresponds to the reaction without test compound and without NADPH, and as a consequence, no Umbelliferone was formed. Denatured proteins and other insoluble parts were separated by centrifugation (10 min, 560×g, room-temperature).
The samples were analysed spectrofluorometrically which allows to detect the formation of Umbelliferone as the enzymatic product of coumarin at an excitation wavelength of 340 nm and an emission wavelength of 480 nm.

[2] = target: T2, CYP2A6 (Homo sapiens, UniProt P11509); assay: CYP2A6 inhibition, coumarin to Umbelliferone fluorescence assay in microsomes; assay type: biochemical; conditions: substrate coumarin 0.003 mM, 60 min at 37° C.; read-out: CYP2A6 inhibitor activity IC50
T2 construct: purchased BD Biosciences Gentest, USA
T2 sequence (P11509 1-494): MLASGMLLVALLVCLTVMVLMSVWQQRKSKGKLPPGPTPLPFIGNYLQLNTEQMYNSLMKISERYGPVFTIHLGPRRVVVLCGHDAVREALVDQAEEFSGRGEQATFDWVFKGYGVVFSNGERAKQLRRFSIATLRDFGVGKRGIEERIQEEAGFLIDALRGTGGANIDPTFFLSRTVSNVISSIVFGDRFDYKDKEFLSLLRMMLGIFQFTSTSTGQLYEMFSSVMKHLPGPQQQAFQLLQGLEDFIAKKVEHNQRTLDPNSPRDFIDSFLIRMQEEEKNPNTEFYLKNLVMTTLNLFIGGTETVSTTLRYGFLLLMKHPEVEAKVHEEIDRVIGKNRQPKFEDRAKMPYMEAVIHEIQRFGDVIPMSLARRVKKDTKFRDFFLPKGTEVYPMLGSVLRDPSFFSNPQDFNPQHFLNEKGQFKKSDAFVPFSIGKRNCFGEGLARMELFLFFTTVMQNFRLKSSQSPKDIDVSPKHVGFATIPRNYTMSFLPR
Description: Test compounds that inhibit the activity of CYP2A6 are identified by using the same principle as described in Example 28, first paragraph.
A test compound (details see list below) was incubated with CYP2A6 in the presence of a cytochrome P450 reductase. CYP2A6 and P450 reductase were employed in form of microsomes (BD Biosciences Gentest, USA). Microsomes were used which contained 2 pmoles CYP2A6 and an amount of NADPH-P450 reductase corresponding to cytochrome c reductase activity of 87 nmole/(min×mg protein). […] The concentration of the standard substrate coumarin was 0.003 mM.
The samples were analysed spectrofluorometrically according to the procedure described in Example 28.

[3] = target: T3, Human CYP2B6 (Homo sapiens, UniProt P20813); assay: Inhibition of human CYP2B6, 7-ethoxy-4-trifluoromethyl-coumarin fluorescence assay in microsomes; assay type: biochemical; conditions: substrate 7-ethoxy-4-trifluoromethyl-coumarin 6 μM, 40 min at 37° C.; read-out: CYP2B6 inhibitor activity IC50
T3 construct: made in house; host or cells: Sf9 insect cells, recombinant baculoviruses (coexpression)
T3 sequence (P20813 1-491): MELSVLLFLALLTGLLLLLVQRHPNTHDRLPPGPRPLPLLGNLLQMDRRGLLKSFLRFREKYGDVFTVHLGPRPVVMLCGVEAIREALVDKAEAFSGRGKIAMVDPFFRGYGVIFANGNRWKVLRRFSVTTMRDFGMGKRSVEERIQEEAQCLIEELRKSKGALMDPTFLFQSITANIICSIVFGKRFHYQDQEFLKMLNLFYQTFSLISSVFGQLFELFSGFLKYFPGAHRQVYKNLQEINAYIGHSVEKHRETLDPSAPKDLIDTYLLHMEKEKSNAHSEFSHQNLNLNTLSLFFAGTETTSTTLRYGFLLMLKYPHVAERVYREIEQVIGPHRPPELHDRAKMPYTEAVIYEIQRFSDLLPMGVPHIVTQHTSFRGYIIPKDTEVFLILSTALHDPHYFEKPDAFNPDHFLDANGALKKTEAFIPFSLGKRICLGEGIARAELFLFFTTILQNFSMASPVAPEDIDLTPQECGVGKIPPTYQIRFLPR
Description: Test compounds that inhibit the activity of CYP2B6 are identified by using the same principle as described in Example 28, first paragraph.
A test compound (details see Table 3) was incubated with CYP2B6 in the presence of a cytochrome P450 reductase. CYP2B6 and P450 reductase are produced using recombinant baculoviruses and co-expressing the two proteins in Sf9 insect cells as described in Example 28. Alternatively, microsomes containing CYP2B6 and the reductase are commercially available (BD Biosciences Gentest, USA). Microsomes were used which contained 1.5 pmoles CYP2B6. Potassium phosphate buffer final concentration was 100 mM, (1M stock, pH 7.4). […] The concentration of the standard substrate 7-ethoxy-4-trifluoromethyl-coumarin was 6 μM. […] The samples were incubated for 40 min at 37° C.

| SMILES | pIC50 [1] | pIC50 [2] | pIC50 [3] | pIC50 ([1]; read-out: CYP2A13 inhibitor activity IC50, substrate coumarin 0.006 mM, 60 min at 37° C.) |
| --- | --- | --- | --- | --- |
| c1ncc2c(n1)CCCCCCCCCC2 [Compound ID 1, 5,6,7,8,9,10,11,12,13,14-decahydrocyclododeca[d]pyrimidine] | 6.52 | 5.05 | 5.57 | – |
| CCCCCCC1=C(C)CCC1=O [Compound ID 3, 2-hexyl-3-methylcyclopent-2-enone] | 6.40 | 4.89 | – | – |
| CC/C=C\CC1=C(C)CCC1=O [Compound ID 10, (Z)-3-methyl-2-(pent-2-enyl)cyclopent-2-enone] | 5.80 | 4.27 | – | – |
| CCCCC1OC(=O)CC1C (stereo not shown) [Compound ID 11, 4-methyl-5-butyldihydrofuran-2(3H)-one] | 5.80 | 4.25 | – | – |
| c1nc2c(o1)CCCCCCCCCC2 [Compound ID 15, 4,5,6,7,8,9,10,11,12,13-decahydrocyclododeca[d]oxazole] | 5.70 | 4.28 | 5.27 | – |
| CCCCCCn1ccnc1 [Compound ID 16, 1-hexyl-1H-imidazole] | – | – | 6.22 | 5.68 |
| CC/C=C\CCn1ccnc1 [Compound ID 23, (Z)-1-(hex-3-enyl)-1H-imidazole] | 5.47 | 5.15 | 5.66 | – |
| CCCCCn1ccnc1 [Compound ID 28, 1-pentyl-1H-imidazole] | 5.38 | 5.70 | – | – |
| C=CCCCCn1ccnc1 [Compound ID 41, 1-(hex-5-enyl)-1H-imidazole] | 5.23 | – | 5.72 | – |
| CC(C)=CCC/C(C)=C\Cn1ccnc1 [Compound ID 44, 1-(3,7-dimethylocta-2,6-dienyl)-1H-imidazole] | 5.19 | 5.22 | 7.00 | – |
| CCCCCC1=CCCC1=O [Compound ID 51, 2-pentylcyclopent-2-enone] | 5.08 | – | – | – |
| CC/C=C/CC1=C(CC(=O)OC)CCC1=O [Compound ID 52] | 5.08 | – | – | – |
| c1cn2c(n1)CCCCCCCCCC2 [Compound ID 53, 5,6,7,8,9,10,11,12,13,14-decahydroimidazo[1,2-a][1]azacyclododecine] | 5.07 | – | – | – |
| CC/C=C\Cn1ccnc1 [Compound ID 54, (Z)-1-(pent-2-enyl)-1H-imidazole] | 5.03 | 5.15 | – | – |
| N#CCCCCn1ccnc1 [Compound ID 55, 5-(1H-imidazol-1-yl)pentanenitrile] | 5.02 | – | – | – |
| C=CCCCCCc1cnccn1 [Compound ID 57, 2-(hept-6-enyl)pyrazine] | 4.99 | – | 6.22 | – |
| c1nc2c([nH]1)CCCCCCCCCC2 [Compound ID 59, 4,5,6,7,8,9,10,11,12,13-decahydro-1H-cyclododeca[d]imidazole] | 4.94 | – | – | – |
| c1nc2c(o1)CCCCCC2 [Compound ID 60, 4,5,6,7,8,9-hexahydrocycloocta[d]oxazole] | 4.94 | – | – | – |
| CC/C=C\CCOC(=O)C1CCCC1=O (stereo not shown) [Compound ID 61] | 4.90 | – | – | – |
| CCCCC1CCC(=O)O1 (stereo not shown) [Compound ID 63, 5-butyldihydrofuran-2(3H)-one] | 4.82 | – | – | – |
| c1cn2c(n1)CCCCCCCCCCC2 [Compound ID 64, 6,7,8,9,10,11,12,13,14,15-decahydro-5H-imidazo[1,2-a][1]azacyclotridecine] | 4.84 | – | – | – |
| O=C1CCCCCCCCCCN1 [Compound ID 65, azacyclododecan-2-one] | 4.81 | – | – | – |
| OCCCCn1ccnc1 [Compound ID 68, 4-(1H-imidazol-1-yl)butan-1-ol] | 4.79 | – | – | – |
| CC1CCC2(CCC(=O)O2)CC1 (stereo not shown) [Compound ID 69, 8-methyl-1-oxaspiro[4.5]decan-2-one] | 4.75 | – | – | – |

Source: patent US20100113460A1, “Organic Compounds” (Givaudan SA, priority 2007, published 2010)
